Experimental data taken from patent publication US11312705B2, “Heteroaryl[4,3-C]pyrimidine-5-amine derivative, preparation method therefor, and medical uses thereof” (Jiangsu Hengrui Medicine Co., Ltd., priority 2017, dated 2022).

Key:
[1] = molecular target: adenosine A3 receptor (A3R) (Homo sapiens (Human), UniProt P0DMS8); assay: Inhibition of adenosine A3 receptor cAMP signaling pathway (HTRF cAMP, CHO-K1/A3R cells); assay type: cell-based; details: Table 2; for IC50: CHO-K1/A3R cells, forskolin 10 μM, 2Cl-IB-MECA 5 nM, cAMP HTRF
Excerpt: Test Example 1. Determination of the inhibition activity of the compounds of the present invention on the adenosine A2a receptor (A2aR) cAMP signaling pathway, the adenosine A2b receptor (A2bR) cAMP signaling pathway, the adenosine A1 receptor (A1R) cAMP signaling pathway and the adenosine A3 receptor (A3R) cAMP signaling pathway.
The inhibition activity of the compounds of the present invention on the adenosine A2a receptor cAMP signaling pathway, the adenosine A2b receptor cAMP signaling pathway, the adenosine A1 receptor cAMP signaling pathway and the adenosine A3 receptor cAMP signaling pathway was determined by the following method. The experimental method is briefly described as follows:
2.3 Adenosine A3 receptor
CHO-K1/A3R cells were cultured in DMEM/F12 medium containing 10% fetal bovine serum and 10 μg/ml puromycin. The cells were digested with the cell separation buffer during the experiment. The cells were resuspended in the balanced salt buffer containing 20 mM HEPES and 0.1% bovine serum albumin and counted, and the cell density was adjusted to 5×10^5 cells/ml. In the 384-well plate, each well was added with 12.5 μl of cell suspension, and 6.25 μl of test compound (4× concentration) formulated with the balanced salt buffer containing 20 mM HEPES, 0.1% bovine serum albumin, 54 μM rolipram and 2.7 U/ml adenosine deaminase, and the plate was incubated at room temperature for 30 minutes. Each well was then added with 6.25 μl of forskolin and 2Cl-IB-MECA (4× concentration) formulated with the balanced salt buffer containing 20 mM HEPES, 0.1% bovine serum albumin, 54 μM rolipram and 2.7 U/ml adenosine deaminase, and the plate was incubated at room temperature for 30 minutes. The final concentrations of the compounds were: 100000, 10000, 1000, 100, 10, 1, 0.1 and 0 nM. The final concentration of forskolin was 10 μM. The final concentration of 2Cl-IB-MECA was 5 nM. Intracellular cAMP concentration was detected with the cAMP dynamic 2 kit. cAMP-d2 and Anti-cAMP-Eu-Cryptate were diluted respectively with the cAMP lysis buffer at a ratio of 1:4. Each well was added with 12.5 μl of diluted cAMP-d2, followed by addition of 12.5 μl of diluted Anti-cAMP-Eu-Cryptate, and the plate was incubated at room temperature in the dark for 1 hour. The HTRF signal values were read by the PHERAstar multi-function microplate reader.

[2] = Brain permeability in mice (plasma/brain concentration plus equilibrium dialysis); assay type: in vivo; details: mouse, not told, po; female C57 mice, 20 mg/kg intragastric, 0.5 h after administration; read-out: Blood-brain permeability index (Kp-unbound)
Procedure: The brain permeability of the compounds of the present invention in mice was determined by the following experimental method:
Four female C57 mice were maintained on a 12 hours light/12 hours dark cycle, in a constant temperature of 24±3° C. and a humidity of 50-60%, and had free access to food and water. The compounds were administered intragastrically to the mice after fasting overnight. The administration dosage was 20 mg/kg. The drug administration group was sacrificed after blood collection at 0.5 h after drug administration (collected blood volume: 0.5 ml). The blood sample was stored in heparinized tubes, and centrifuged for 10 minutes at 3500 rpm to separate the plasma, which was marked as plasma 1 and stored at −80° C. […]
The equilibrium dialysis tube of RED Device Inserts was inserted into a 96-well plate. […] The chromatographic peak area ratios of the total drug (plasma chamber) and the free drug (buffer chamber) to the internal standard were determined directly by the LC/MS/MS method established above respectively, and the free percent (fuplasma%) was calculated. […]
5.1 The drug concentrations in plasma 1 and brain tissue 1 of mice 0.5 h after drug administration were determined by the established LC/MS/MS method respectively, which were the total concentration (Ctotal, p and Ctotal, b); […]

adenosine A3 receptor (A3R), sequence (P0DMS8 whole entry): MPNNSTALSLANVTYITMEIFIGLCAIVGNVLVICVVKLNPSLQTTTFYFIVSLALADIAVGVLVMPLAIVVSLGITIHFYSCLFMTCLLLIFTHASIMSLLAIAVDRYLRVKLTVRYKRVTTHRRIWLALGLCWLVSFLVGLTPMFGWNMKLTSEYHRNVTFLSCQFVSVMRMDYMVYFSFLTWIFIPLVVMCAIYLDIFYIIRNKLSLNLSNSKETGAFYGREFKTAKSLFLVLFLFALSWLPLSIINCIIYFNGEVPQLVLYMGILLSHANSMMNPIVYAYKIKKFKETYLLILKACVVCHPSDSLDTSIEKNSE

Row | SMILES | IC50 ratio (A3R/A2aR) [1] | IC50 [1] | Kp at 0.5 h [2]
1 | Cc1cc(-c2c(-c3ccc(F)cc3F)nc(N)n3cnnc23)cc(C(F)(F)F)n1 [Example 18, 7-(2,4-Difluorophenyl)-8-(2-methyl-6-(trifluoromethyl)pyridin-4-yl)-[1,2,4]triazolo[4,3-c]pyrimidin-5-amine] | >2.5 × 10^3 | > 10000 nM | 0.01
2 | Cc1cc(-c2c(-c3ccc(F)cc3F)nc(N)n3cnnc23)cc(C(F)F)n1 [Example 20, 8-(2-(Difluoromethyl)-6-methylpyridin-4-yl)-7-(2,4-difluorophenyl)-[1,2,4]triazolo[4,3-c]pyrimidin-5-amine] | >4.3 × 10^3 | > 10000 nM | 0.015
